Source: patent US12329758B2, “Methods for the treatment of psoriatic arthritis” (Alfasigma S.p.A., priority 2018, dated 2025)

How the values were obtained:
[1] = tested on: moderately to severely active PsA; assay: Phase 2 clinical study NCT03101670, Minimal Disease Activity (MDA); type: in vivo, human; settings: 200 mg q.d.
From the text: As used herein, the term ‘MDA’ refers to the Minimal Disease Activity, which is a measure for disease remission. For the purpose of the present invention a patient will be classified as having achieved MDA when 5 out of 7 of the following criteria are met: • TJC68 ≤1 • SJC66 ≤1 • PASI ≤1 or BSA ≤3% • Patient's Global Assessment of PsA pain intensity score ≤15 (0-100 mm VAS) • Patient's Global Assessment of Disease Activity ≤20 (0-100 mm VAS) • HAQ-DI ≤0.5 • SPARCC Enthesitis Index ≤1.
(§1) This is a multicenter, Phase 2, double-blind, placebo-controlled study in subjects with moderately to severely active PsA who have an inadequate response or are intolerant to conventional disease-modifying therapy. […] Randomization to treatment groups are stratified by current cDMARD use (yes or no) and prior anti-TNF pharmaceutical use (yes or no).
The disease activity in PsA will be measured using the MDA, which is a measure to indicate disease remission. The MDA is based on a composite score of 7 domains. A patient will be classified as having achieved MDA when 5 out of 7 of the following criteria are met: • TJC68 ≤1 • SJC66 ≤1 • PASI ≤1 or BSA ≤3% • Patient's Global Assessment of PsA pain intensity score ≤15 (0-100 mm VAS) • Patient's Global Assessment of Disease Activity ≤20 (0-100 mm VAS) • HAQ-DI ≤0.5 • SPARCC Enthesitis Index ≤1

[2] = tested on: enthesitis in PsA patients; assay: Phase 2 clinical study NCT03101670, enthesitis by SPARCC Enthesitis Index; settings: human, in vivo
Method: As used herein, the term ‘SPARCC Enthesitis Index’ refers to a clinical scoring after examination of (entheseal) tenderness at 16 peripheral sites, which are evaluated for tenderness by palpation, and scored 0 (non-tender) or 1 (tender). The total enthesitis score is the sum of all site scores and is maximally 16. The higher the score, the higher the enthesitis burden. (Maksymowych W P et al. Development and validation of the Spondyloarthritis Research Consortium of Canada (SPARCC) Enthesitis Index. Ann Rheum Dis 2009; 68:948-53)
as §1
Enthesitis is assessed using the SPARCC Enthesitis Index. Sixteen body sites is evaluated for tenderness by palpation, and scored with 0 (non-tender) or 1 (tender). The total enthesitis score is the sum of all site scores and is maximally 16. The higher the score, the higher the enthesitis burden.
Enthesitis is assessed using the SPARCC Enthesitis Index and Leeds Enthesitis Index (LEI). The Enthesitis parameters are analyzed only in the subpopulation of subjects who have enthesitis at baseline (LEI >0). […]

[3] = tested on: enthesitis in PsA patients; assay: Phase 2 clinical study NCT03101670, enthesitis by Leeds Enthesitis Index (LEI); type: in vivo, human; settings: for LEI score (change from baseline): 200 mg q.d.
From the text: As used herein, the term ‘Leeds Enthesitis Index’ or ‘LEI’ refers to a clinical scoring after examination of (entheseal) tenderness at six sites: 2 sites at each of the lateral epicondyles of the humerus, medial condyles of the femur and the insertion of the Achilles tendon. The LEI score range is 0-6. The higher the score, the higher the enthesitis burden.
as §1
In addition to the 16 sites used to assess enthesitis when evaluating the SPARCC Enthesitis Index, medial femoral condyles (left and right) is also assessed and evaluated in a similar way as the other 16 sites to allow assessing the Leeds enthesitis index (LEI).
Enthesitis is assessed using the SPARCC Enthesitis Index and Leeds Enthesitis Index (LEI). The Enthesitis parameters are analyzed only in the subpopulation of subjects who have enthesitis at baseline (LEI >0). Analysis focusses on the changes from baseline.

[4] = tested on: moderately to severely active PsA; assay: Phase 2 clinical study NCT03101670, physical function (HAQ-DI); type: in vivo, human; settings: 200 mg q.d.
From the text: As used herein, the term 'HAQ-ID' refers to the Health Assessment Questionnaire […] Disability Index, which is a measure for the physical functioning of a patient. The HAQ-DI is a 20-question instrument assessing the degree of difficulty a person has in accomplishing tasks in 8 function areas (B. Bruce and J. Fries, “The Stanford Health Assessment Questionnaire: dimensions and practical applications,” Health Qual Life Outcomes, p. 1:20, 2003). The HAQ-DI total score ranges from 0 to 3 with higher scores indicating greater dysfunction. This is a multicenter, Phase 2, double-blind, placebo-controlled study in subjects with moderately to severely active PsA who have an inadequate response or are intolerant to conventional disease-modifying therapy. […] Randomization to treatment groups are stratified by current […] use (yes or no) and prior anti-TNF pharmaceutical use (yes or no). The HAQ-DI is used to monitor the subject's self-assessed physical function or disability. This 20-question instrument assesses the degree of difficulty a person has in accomplishing tasks in 8 function areas (getting dressed, arising, eating, walking, […], hygiene, reaching, gripping, errands and chores). Responses are scored on a 4-point Likert scale from 0, indicating no difficulty, to 3, indicating inability to perform a task in that area. The need for aids/devices or help from another person is also recorded. The HAQ-DI total score ranges from 0 to 3 with higher scores indicating greater dysfunction. HAQ-DI is scored on a scale from 0 to 3 and changes from baseline are reported. A decrease by at least 0.22 points versus the baseline is considered clinically meaningful.

For O=C(Nc1nc2cccc(-c3ccc(CN4CCS(=O)(=O)CC4)cc3)n2n1)C1CC1 [compound I, cyclopropanecarboxylic acid {5-[4-(1,1-dioxo-thiomorpholin-4-ylmethyl)-phenyl]-[1,2,4]triazolo[1,5-a]pyridin-2yl}-amide], the MDA ([1]; Week 12) was 21.5%, the MDA ([1]; Week 16) was 23.1% and the “effect on enthesitis compared with placebo” value [2] was “improved enthesitis compared with placebo”. The “LEI score (change from baseline)” value ([3]; Week 4, enthesitis at baseline (LEI >0)) was −1.7, the “LEI score (change from baseline)” value ([3]; Week 8, enthesitis at baseline (LEI >0)) was −2.1 and the “LEI score (change from baseline)” value ([3]; Week 12, enthesitis at baseline (LEI >0)) was −1.9. For the same molecule, the “LEI score (change from baseline)” value ([3]; Week 16, enthesitis at baseline (LEI >0)) was −1.8, the “Enthesitis resolved per LEI, treatment difference versus placebo” value ([3]; patients with enthesitis at baseline) was 26% and the “HAQ-DI (change from baseline)” value ([4]; Week 1) was −0.19. For the same molecule, the “HAQ-DI (change from baseline)” value ([4]; Week 2) was −0.30, the “HAQ-DI (change from baseline)” value ([4]; Week 4) was −0.44 and the “HAQ-DI (change from baseline)” value ([4]; Week 8) was −0.50. The “HAQ-DI (change from baseline)” value ([4]; Week 12) was −0.53 and the “HAQ-DI (change from baseline)” value ([4]; Week 16) was −0.57.
